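Abbreviation: GI50, concentration required for 50% inhibition of growth. TGI is the concentration that stops growth completely.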
Columns and labels:
Test in all cases: DTP human tumour cell line panel, 384-well format
786-0 renal = test system: 786-0 renal
A498 renal = test system: A498 renal
A549 NSCLC = test system: A549 NSCLC
ACHN renal = test system: ACHN renal
CCRF-CEM leukemia = test system: CCRF-CEM leukemia
COLO 205 colon = test system: COLO 205 colon
HCT-116 colon = test system: HCT-116 colon
HCT-15 colon = test system: HCT-15 colon
HL-60(TB) leukemia = test system: HL-60(TB) leukemia
HOP-62 NSCLC = test system: HOP-62 NSCLC
HOP-92 NSCLC = test system: HOP-92 NSCLC
K-562 leukemia = test system: K-562 leukemia
M14 melanoma = test system: M14 melanoma
MCF7 breast = test system: MCF7 breast
MDA-MB-435 melanoma = test system: MDA-MB-435 melanoma
MDA-MB-468 breast = test system: MDA-MB-468 breast
MOLT-4 leukemia = test system: MOLT-4 leukemia
NCI-H226 lung = test system: NCI-H226 lung
NCI-H522 lung = test system: NCI-H522 lung
NCI/ADR-RES ovarian = test system: NCI/ADR-RES ovarian
OVCAR-4 ovarian = test system: OVCAR-4 ovarian
OVCAR-8 ovarian = test system: OVCAR-8 ovarian
PC-3 prostate = test system: PC-3 prostate
RPMI-8226 leukemia = test system: RPMI-8226 leukemia
RXF 393 renal = test system: RXF 393 renal
SK-MEL-2 melanoma = test system: SK-MEL-2 melanoma
SK-MEL-5 melanoma = test system: SK-MEL-5 melanoma
SN12C renal = test system: SN12C renal
SR leukemia = test system: SR leukemia
TK-10 renal = test system: TK-10 renal
UACC-62 melanoma = test system: UACC-62 melanoma
UO-31 renal = test system: UO-31 renal

Cc1sc(C(=O)c2cncnc2N[C@@H]2C[C@H](COS(N)(=O)=O)[C@@H](O)C2)cc1[C@@H]1NCCc2ccc(Cl)cc21 gave a GI50 ([…]-0 renal) of 453 nM, a TGI (786-0 renal) of 20500 nM and a GI50 (A498 renal) of 561 nM. The TGI (A498 renal) was 18700 nM, the GI50 (A549 NSCLC) was 74.4 nM and the TGI (A549 NSCLC) was 17200 nM. The GI50 (ACHN renal) was 12500 nM, the TGI (ACHN renal) was 25300 nM and the GI50 (CCRF-CEM leukemia) was less than 10 nM. For the same compound, the TGI (CCRF-CEM leukemia) was 14.8 nM, the GI50 (COLO 205 colon) was 13.2 nM and the TGI (COLO 205 colon) was 75.6 nM. The GI50 (HCT-116 colon) was 28.2 nM, the TGI (HCT-116 colon) was 17400 nM and the GI50 (HCT-15 colon) was 2500 nM. It also gave a TGI (HCT-15 colon) of 14200 nM, a GI50 (HL-60(TB) leukemia) of 11.1 nM and a TGI (HL-60(TB) leukemia) of 23.3 nM. The GI50 (HOP-62 NSCLC) was 321 nM, the TGI (HOP-62 NSCLC) was 19300 nM and the GI50 (HOP-92 NSCLC) was 18.8 nM. For the same compound, the TGI (HOP-92 NSCLC) was 10100 nM, the GI50 (K-562 leukemia) was 54.8 nM and the TGI (K-562 leukemia) was 13100 nM. The GI50 (M14 melanoma) was 32.2 nM, the TGI (M14 melanoma) was 214 nM and the GI50 (MCF7 breast) was less than 10 nM. It also gave a TGI (MCF7 breast) of 15300 nM, a GI50 (MDA-MB-435 melanoma) of less than 10 nM and a TGI (MDA-MB-435 melanoma) of 18.3 nM. It also gave a GI50 (MDA-MB-468 breast) of less than 10 nM, a TGI (MDA-MB-468 breast) of 17.2 nM and a GI50 (MOLT-4 leukemia) of less than 10 nM. For the same compound, the TGI (MOLT-4 leukemia) was 18.6 nM, the GI50 (NCI-H226 lung) was 160 nM and the TGI (NCI-H226 lung) was 16300 nM. It also gave a GI50 (NCI-H522 lung) of less than 10 nM, a TGI (NCI-H522 lung) of 15.1 nM and a GI50 (NCI/ADR-RES ovarian) of 32700 nM. The TGI (NCI/ADR-RES ovarian) was greater than 100000 nM, the GI50 (OVCAR-4 ovarian) was 29 nM and the TGI (OVCAR-4 ovarian) was 81 nM. It also gave a GI50 (OVCAR-8 ovarian) of 186 nM, a TGI (OVCAR-8 ovarian) of 17500 nM and a GI50 (PC-3 prostate) of 35.2 nM. It also gave a TGI (PC-3 prostate) of 19200 nM, a GI50 (RPMI-8226 leukemia) of less than 10 nM and a GI50 (RXF 393 renal) of 10.4 nM. The TGI (RXF 393 renal) was 57.8 nM, the GI50 (SK-MEL-2 melanoma) was less than 10 nM and the TGI (SK-MEL-2 melanoma) was 12.3 nM. For the same compound, the GI50 (SK-MEL-5 melanoma) was 56.5 nM, the TGI (SK-MEL-5 melanoma) was 239 nM and the GI50 (SN12C renal) was 133 nM. For the same compound, the TGI (SN12C renal) was 21400 nM, the GI50 (SR leukemia) was less than 10 nM and the GI50 (TK-10 renal) was 14500 nM. The TGI (TK-10 renal) was 27700 nM, the GI50 (UACC-62 melanoma) was 19.8 nM and the TGI (UACC-62 melanoma) was 17700 nM. For the same compound, the GI50 (UO-31 renal) was 10600 nM and the TGI (UO-31 renal) was 22600 nM.

Reference: PubChem BioAssay (NCI)
